Results taken from patent US20250002493A1, “PYRIDONE COMPOUND AND PREPARATION METHOD THEREFOR, PHARMACEUTICAL COMPOSITION AND USE” (NANJING CHINA-AUSTRALIA INSTITUTE OF TRANSLATIONAL MEDICINE …, priority 2022, published 2025).

What was measured:
[1] = target: BIR3 domain of human cIAP2 (residues 236-342) (Homo sapiens (Human), UniProt Q13489); experiment: Fluorescence polarization competitive binding to cIAP2 BIR3; settings: FP, peptide probe 5 nM, cIAP2 BIR3 10 nM, 1 hour room temperature
Description: (§1) The binding affinity of the compounds provided by the present invention to IAP proteins was determined using a fluorescence polarization method (Nikolovska-Colesak et al, Anal. Biochem. 2004, 332:261-73). The recombinant BIR3 domains of human XIAP (residues 238-358), human cIAP1 (residues 255-364) and human cIAP2 (residues 236-342) fusing GST-tags were expressed in E. coli and purified using glutathione agarose 4B affinity chromatography and gel filtration chromatography. A 5-Fam fluorescently modified peptide probe (AbuRPFK(5-Fam)-NH2) was used to test the competitive binding ability of the compounds to the BIR3 domains of XIAP, cIAP1 and cIAP2. The peptide probe (5 nM), XIAP BIR3 (30 nM) or cIAP1 BIR3 (5 nM) or cIAP2 BIR3 (10 nM), and serial diluted compounds were mixed in a test buffer (100 mM potassium phosphate pH 7.5, 100 μg/ml bovine gamma globulin, 0.02% sodium azide, and 1 mM DTT). After incubating the samples at room temperature for 1 hour, the fluorescence polarization values were read using a Tecan microplate reader (FP excitation wavelength 485 nm, […] wavelength 530 nm). The IC50 value was obtained by fitting the curve using nonlinear least square regression with the Graphpad Prism software. The inhibition constant Ki, values were calculated using the Equation Ki, [I]50/([L]50/Kd+[P]0/Kd+1).

[2] = test system: SK-OV-3 human ovarian cancer cells; experiment: WST-8 cell proliferation assay, SK-OV-3; assay type: cell-based; settings: 72 hours, read-out: SKOV-3 IC50
Description: (§2) The effects of the compounds provided by the present invention on the proliferation of different cancer cell lines were tested using the WST-8 assay kit. This method is based on the reduction of WST-8 by dehydrogenase in live cells to form a highly water-soluble yellow Formazan dye. Cells were seeded in a 96-well plate and cultured with the test compounds at 37° C. under 5% CO2 for 72 hours. Afterwards, 10% (v/v) WST-8 was added, and the samples were incubated for an additional 2-3 hours. The absorbance of the samples was measured at 450 nm using a Tecan microplate reader, and the concentration of the compound that inhibited 50% of cell proliferation (IC50, nM) was calculated. The activity of the compounds provided by the present invention was determined in three cancer cell lines: MDA-MB-231 human breast cancer cells, SK-OV-3 human ovarian cancer cells, and PANC1 human pancreatic cancer.

[3] = test system: PANC1 human pancreatic cancer; experiment: WST-8 cell proliferation assay, PANC1; assay type: cell-based; settings: PANC-1, 72 hours
Description: as §2

[4] = target: BIR3 domain of human XIAP (residues 238-358) (Homo sapiens (Human), UniProt P98170); experiment: Fluorescence polarization competitive binding to XIAP BIR3; settings: FP, peptide probe 5 nM, XIAP BIR3 30 nM, 1 hour room temperature
Description: as §1

[5] = test system: MDA-MB-231 human breast cancer cells; experiment: WST-8 cell proliferation assay, MDA-MB-231; assay type: cell-based; settings: 72 hours
Description: as §2

[6] = target: BIR3 domain of human cIAP1 (residues 255-364) (Homo sapiens (Human), UniProt Q13490); experiment: Fluorescence polarization competitive binding to cIAP1 BIR3; settings: FP, peptide probe 5 nM, cIAP1 BIR3 5 nM, 1 hour room temperature
Description: as §1

MDA-MB-231 cancer cells = experiment: Inhibitor-induced apoptosis, flow cytometry with Annexin V and propidium iodide; assay type: cell-based, human; settings: 3 hours
Description: After treating the cells with 10 nM and 100 nM concentrations of the compounds for 3 hours, the induction of apoptosis was analyzed using flow cytometry with Annexin V and propidium iodide staining.

Chain of BIR3 domain of human cIAP2 (residues 236-342) (Q13489 236-342): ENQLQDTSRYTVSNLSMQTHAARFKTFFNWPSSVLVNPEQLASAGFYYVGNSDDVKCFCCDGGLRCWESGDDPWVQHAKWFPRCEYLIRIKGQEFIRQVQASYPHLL
Chain of BIR3 domain of human cIAP1 (residues 255-364) (Q13490 255-364): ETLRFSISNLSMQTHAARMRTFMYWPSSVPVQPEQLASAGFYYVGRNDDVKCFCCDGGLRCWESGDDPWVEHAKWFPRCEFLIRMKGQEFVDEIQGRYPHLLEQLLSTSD
Chain of BIR3 domain of human XIAP (residues 238-358) (P98170 238-358): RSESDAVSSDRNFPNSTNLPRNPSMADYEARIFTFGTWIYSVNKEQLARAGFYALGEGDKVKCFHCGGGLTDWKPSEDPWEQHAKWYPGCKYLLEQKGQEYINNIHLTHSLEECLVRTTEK

Row | Ki [1] | IC50 [2] | IC50 [3] | Ki [4] | IC50 [5] | Ki [6] | SMILES | Proportion of apoptotic cells (MDA-MB-231 cancer cells; Drug concentration 10 nM) | Proportion of apoptotic cells (MDA-MB-231 cancer cells; Drug concentration 100 nM)
1 | 3.2 nM | 13 nM | 75 nM | 73.2 nM | 8 nM | 1.3 nM | CN[C@@H](C)C(=O)N[C@H](C(=O)N1CCc2cc(=O)n(Cc3ccc(F)cc3F)cc21)C1CCCCC1 [Compound I-2-4] | 32% | 45%
2 | 1.7 nM | 4 nM | 38 nM | 31.4 nM | 5 nM | 0.7 nM | CN[C@@H](C)C(=O)N[C@H](C(=O)N1CCc2cc(=O)n(Cc3ccc(F)cc3)cc21)C(C)(C)C [Compound I-2-11] | 35% | 48%
3 | 4 nM | 12 nM | 64 nM | 76.9 nM | 9 nM | 1 nM | [2H]C([2H])([2H])N[C@@H](C)C(=O)N[C@H](C(=O)N1CCc2cc(=O)n(Cc3ccc(F)cc3)cc21)C1CCCCC1 [Compound I-2-15] |  | 
4 | 1.8 nM | 1 nM | 33 nM | 21.5 nM | 3 nM | 1 nM | CN[C@@H](C)C(=O)N[C@H](C(=O)N1CCc2cc(=O)n(Cc3ccc(F)cc3F)cc21)C(C)(C)C [Compound I-2-20] | 39% | 53%
5 | 1.5 nM | 2 nM | 34 nM | 21 nM | 3 nM | 0.8 nM | [2H]C([2H])([2H])N[C@@H](C)C(=O)N[C@H](C(=O)N1CCc2cc(=O)n(Cc3ccc(F)cc3F)cc21)C(C)(C)C [Compound I-2-22] | 38% | 52%
6 | 2.3 nM | 5 nM | 67 nM | 53.6 nM | 9 nM | 1 nM | CN[C@@H](C)C(=O)N[C@H](C(=O)N1CCc2cc(=O)n(Cc3ccc(F)cc3O)cc21)C(C)(C)C [Compound I-2-23] | 35% | 50%
7 | 6.9 nM | 7 nM | 89 nM | 70.9 nM | 21 nM | 1.4 nM | CN[C@@H](C)C(=O)N[C@H](C(=O)N1CC(C)(C)c2cc(=O)n(Cc3ccc(F)cc3F)cc21)C(C)(C)C [Compound I-2-26] | 32% | 47%
8 | 5.7 nM | 19 nM | 96 nM | 208 nM | 18 nM | 1.9 nM | CN[C@@H](C)C(=O)N[C@H](C(=O)N1CC(C)(C)c2cc(=O)n(Cc3ccc(F)cc3F)cc21)C1CCCCC1 [Compound I-2-27] | 31% | 46%
9 | 6.7 nM | 23 nM | 124 nM | 185 nM | 20 nM | 1.9 nM | [2H]C([2H])([2H])N[C@@H](C)C(=O)N[C@H](C(=O)N1CC(C)(C)c2cc(=O)n(Cc3ccc(F)cc3F)cc21)C(C)(C)C [Compound I-2-28] | 29% | 47%
10 | 12.7 nM | 32 nM | 165 nM | 568 nM | 29 nM | 3 nM | [2H]C([2H])([2H])N[C@@H](C)C(=O)N[C@H](C(=O)N1CC(C)(C)c2cc(=O)n(Cc3ccc(F)cc3)cc21)C(C)(C)C [Compound I-2-29] | 20% | 42%
11 | 10 nM | 29 nM | 189 nM | 343 nM | 28 nM | 2.2 nM | CN[C@@H](C)C(=O)N[C@H](C(=O)N1CC(C)(C)c2cc(=O)n(Cc3ccc(F)cc3O)cc21)C(C)(C)C [Compound I-2-32] | 21% | 43%
12 | 7.9 nM | 27 nM | 192 nM | 288 nM | 24 nM | 1.9 nM | CN[C@@H](C)C(=O)N[C@H](C(=O)N1CC(C)(C)c2cc(=O)n(Cc3ccc(F)cc3)cc21)C(C)(C)C [Compound I-2-33] | 23% | 45%
13 | 1.5 nM |  |  | 24.1 nM |  | 1.1 nM | C[C@H](N)C(=O)N[C@H](C(=O)N1CCc2cc(=O)n(Cc3ccc(F)cc3F)cc21)C(C)(C)C [Compound I-2-34] |  | 
14 | 2.6 nM |  |  | 33.4 nM |  | 1.2 nM | [2H]C([2H])([2H])N[C@@H](C)C(=O)N[C@H](C(=O)N1CCc2cc(=O)n(Cc3ccc(F)cc3F)cc21)C(C)(C)C [Compound I-2-35] |  | 
15 | 2.6 nM | 4 nM | 58 nM | 30.7 nM | 5 nM | 1.2 nM | CN[C@@H](C)C(=O)N[C@H](C(=O)N1CCc2c1cc(Cc1ccc(F)cc1)c(=O)n2C)C1CCCCC1 [Compound I-3-1, (S)-N-((S)-1-cyclohexyl-2-(6-(4-fluorobenzyl)-4-methyl-5-oxo-2,3,4,5-tetrahydro-1H-pyrrolo[3,2-b]pyridine-1-yl)-2-oxyethyl)-2-(methylamino)propanamide] | 36% | 48%
16 | 2.2 nM | 2 nM | 43 nM | 18.4 nM | 2 nM | 1.2 nM | CN[C@@H](C)C(=O)N[C@H](C(=O)N1CCc2c1cc(Cc1ccc(F)cc1)c(=O)n2C)C(C)(C)C [Compound I-3-2] | 38% | 52%
17 | 2.2 nM | 1 nM | 37 nM | 13.7 nM | 2 nM | 1.4 nM | CN[C@@H](C)C(=O)N[C@H](C(=O)N1CCc2c1cc(Cc1ccc(F)cc1F)c(=O)n2C)C(C)(C)C [Compound I-3-3] | 43% | 55%
18 | 1.6 nM |  |  | 12.3 nM |  | 0.8 nM | CCn1c2c(cc(Cc3ccc(F)cc3F)c1=O)N(C(=O)[C@@H](NC(=O)[C@H](C)NC)C(C)(C)C)CC2 [Compound I-3-6] |  | 
19 | 5.2 nM |  |  | 45.2 nM |  | 1.6 nM | CN[C@@H](C)C(=O)N[C@H](C(=O)N1CC(C)(C)c2c1cc(Cc1ccc(F)cc1F)c(=O)n2C)C(C)(C)C [Compound I-3-7] |  | 
20 | 2.1 nM |  |  | 7.1 nM |  | 1.3 nM | CN[C@@H](C)C(=O)N[C@H](C(=O)N1CCc2c1cc(Cc1ccc(F)cc1F)c(=O)n2CC(F)(F)F)C(C)(C)C [Compound I-3-8] |  | 
21 | 2.7 nM | 1 nM | 53 nM | 19.9 nM | 6 nM | 1.3 nM | CN[C@@H](C)C(=O)N[C@H](C(=O)N1CCc2[nH]c(=O)c(Cc3ccc(F)cc3)cc21)C1CCCCC1 [Compound I-4-1, (S)-N-((S)-1-cyclohexyl-2-(6-(4-fluorobenzyl)-5-oxo-2,3,4,5-tetrahydro-1H-pyrrolo[3,2-b]pyridine-1-yl)-2-oxyethyl)-2-(methylamino)propanamide] | 36% | 49%
22 | 1.9 nM |  |  | 8.2 nM |  | 1 nM | CN[C@@H](C)C(=O)N[C@H](C(=O)N1CCc2[nH]c(=O)c(Cc3ccc(F)cc3)cc21)C(C)(C)C [Compound I-4-3] |  | 
23 | 5.8 nM | 40 nM | 241 nM | 25.2 nM | 33 nM |  | CN[C@@H](C)C(=O)N[C@H]1CN(C(=O)CC(C)C)CC[C@H]2CC[C@@H](C(=O)NC(c3ccccc3)c3ccccc3)N2C1=O [SM-406, reference compound] | 6% | 34%
